Legend:
[1] = system: bacteria of the Burkholderia cepacia complex; test: Reduction in viability of Bcc bacteria (preservative activity); format: cell-based; settings: in 4 hours
[2] = system: bacteria of the Burkholderia cepacia complex; test: Sensitivity test (MIC/MBC by agar dilution and broth dilution) on a Burkholderia strain panel; format: cell-based
Procedure: The minimum inhibitory concentration (MIC) and the minimum bactericidal concentration (MBC) of compounds of formula (I) of the invention, in particular EZ, were determined by standardized agar dilution and broth dilution tests, described by Rushton et al. Key role for efflux in the preservative susceptibility and adaptive resistance of Burkholderia cepacia complex bacteria. Antimicrobial Agents and Chemotherapy, 2013. 57(7): p. 2972-2980 using TSA/TSB. The culture was carried out at 30° C. in order to be representative of the production and storage of industrial products. Preserving stock solutions (50% w/v) were prepared in DMSO (Sigma-Aldrich, United Kingdom) and volumes were added to the medium so as to achieve the test concentration. The final concentration of DMSO in the presence of the bacterium was verified to be non-toxic (not exceeding 4% v/v) and was included as control condition in the tests in order to eliminate the effect on growth. […] The efficacy and toxicity of the neutralizing solution were evaluated before the experiment, as described in the scientific publication by Lear, J. C., et al. (J. C., et al., Chloroxylenol- and triclosan-tolerant bacteria from industrial sources—Susceptibility to antibiotics and other biocides. International Biodeterioration and Biodegradation, 2006. 57(1): p. 51-56). […]

[3] = system: bacteria of the Bcc complex; settings: levels used in industry; cited from earlier work

SMILES	reduction in viability [1] [log]	inhibitory activity with respect to bacteria of the Burkholderia cepacia complex [2]	efficacy against a diversified panel of 57 Burkholderia strains ([2]; strains representing species commonly encountered as contaminants, culture at 30° C.)	efficacy with respect to contamination by bacteria of the Bcc complex [3]
CCOc1cc(CCC(C)=O)ccc1O [EZ, 4-(3-ethoxy-4-hydroxyphenyl)butan-2-one]	6	very significant inhibitory activity	excellent efficacy	
O=C([O-])c1ccccc1.[Na+] [sodium benzoate]				ineffective
